Reference: patent publication US9968617B2, “Local topical administration formulations containing indoxacarb” (E.I. du Pont de Nemours and Company, priority 2006, dated 2018)
Where “and” joins values, the source holds several entries; their conditions need not be identical. Identical values can stand only once.

Legend:
[1] = test system: fleas (Ctenocephalides felis); experiment: Dose response study on canines against fleas, Indoxacarb spot-on (Example 1); type: in vivo; conditions: for reduction of flea infestation: dogs
Method: A non-blinded prospective longitudinal artificial infestation parasite efficacy pen study was conducted with a fully randomized design (ranking and blocking based on breed and pre-treatment flea count). There were 5 treatment groups of 6 dogs each, and an untreated control group.
Thirty-three (33) adult dogs (Labrador Retrievers and Jack Russell Terriers) were inducted, clinically examined, weighed, identified and allocated to study pens on Day −7. Each dog was artificially infested with 100 fleas (Ctenocephalides felis) on Day −5 and again on Day −2. On Day −1 flea thumb counts were performed on all dogs and 30 dogs were selected for inclusion. These dogs were randomly allocated to 5 similar groups of 6 animals on the basis of breed and flea counts, and groups were allocated to study pens. On Day 0, Groups B, C, D and E were treated with a local topical administration formulation containing Indoxacarb (DPX-K128) dissolved in a mixture of Dimethyl Isosorbide (DMI) and Propylene Glycol Monomethyl Ether (90% Dimethyl Isosorbide (DMI) and 10% Propylene Glycol Monomethyl Ether by volume) to form a total concentration of 75, 100, 125 or 150 g/L of Indoxacarb (DPX-K128). The starting material to prepare the formulation was a mixture of DPX-K128-and DPX-KN127 (the R-isomer of Formula 1) and contained 70.43% Indoxacarb (DPX-K128). […] The formulation was administered via spot-on application (i.e. applying in liquid form to less than or equal to 10% of the surface area of the animal) to the dorsal midline at the rate of 0.1 mL/1 kg. Group A remained untreated as controls. Group B was dosed at the rate of 7.5 mg/kg; Group C at the rate of 10.0 mg/kg; Group D at the rate of 12.5 mg/kg; and Group E at the rate of 15.0 mg/kg.
Flea thumb counts were performed at 24 hours. Flea comb counts were performed at 48 hours post-treatment and all dogs then treated with Capstar® oral tablets (Nitenpyram, Novartis Animal Health) to remove all fleas prior to the next infestation. Animals were re-infested with 100 adult fleas at 7, 14, 21 and 28 days post-treatment. At 24 hours after each infestation, flea comb counts were performed followed by Capstar treatment.

fleas = experiment: Effect of washing on persistency, flea comb count on dogs (Example 2); type: in vivo, Ctenocephalides felis; conditions: for Group Average Count: Day 44; for Flea Count: individual dog, Day 44, infested with 100 fleas Day 43
Method: At completion of the study described in Experiment 1 above, a further washing study was conducted using the six dogs in Group E for a further two weeks.
During the two-week period, four of the six dogs from Group E were washed twice weekly in a non-insecticidal hydrobath, while the other two dogs from Group E were not washed and acted as controls. On Day 43 post-treatment, the 6 dogs were infested with 100 fleas and then had their ability to retain a flea infestation assessed on Day 44 by a flea comb count.

Question: Which results are given for `COC(=O)N(C(=O)N1CO[C@@]2(C(=O)OC)Cc3cc(Cl)ccc3C2=N1)c1ccc(OC(F)(F)F)cc1` [Indoxacarb, (S)-methyl 7-chloro-2,5-dihydro-2-[[(methoxycarbonyl)[4-(trifluoromethoxy)phenyl]amino]carbonyl]indeno[1,2-e][1,3,4]oxadiazine-4a(3H)-carboxylate]?
Answer: persistent efficacy, reduction ([1]; all four groups (7.5-15.0 mg/kg), from the 48 hour count until 29 days post-treatment): ≥ 99%; reduction of flea infestation ([1]; spot-on 7.5 mg/kg (Group B), 24 hrs post-treatment): 97.9%; reduction of flea infestation ([1]; spot-on 7.5 mg/kg (Group B), 48 hrs post-treatment): 99.4%; reduction of flea infestation ([1]; spot-on 10.0 mg/kg (Group C), 24 hrs post-treatment): 97.9%; reduction of flea infestation ([1]; spot-on 10.0 mg/kg (Group C), 48 hrs post-treatment): 100%; reduction of flea infestation ([1]; spot-on 12.5 mg/kg (Group D), 24 hrs post-treatment): 99.0%; reduction of flea infestation ([1]; spot-on 12.5 mg/kg (Group D), 48 hrs post-treatment): 100%; reduction of flea infestation ([1]; spot-on 15.0 mg/kg (Group E), 24 hrs post-treatment): 100%; reduction of flea infestation ([1]; spot-on 15.0 mg/kg (Group E), 48 hrs post-treatment): 99.4%; persistence after washing (fleas; 44 days, after 4 shampoo hydrobath washes): excellent persistence; Group Average Count (fleas; Treated Non-Wash): 0; Group Average Count (fleas; Treated Wash): 3; Flea Count (fleas; Treated Non-Wash (15.0 mg/kg)): 0; Flea Count (fleas; Treated Wash (15.0 mg/kg, washed twice weekly for two weeks)): 4 and 5 and 1 and 2
